Results reported in US7956053B2, “Inhibitors of tyrosine kinases” (Novartis AG, priority 2002, dated 2011).

Legend:
c-Abl = target: T1, c-Abl (Homo sapiens, UniProt P00519); assay: Test for activity against c-Abl protein tyrosine kinase (filter binding assay); format: biochemical
T1 construct: The His-tagged kinase domain of c-Abl is cloned and expressed in the baculovirus/Sf9 system; His; made in house; host or cells: baculovirus/Sf9
T1 sequence (P00519 242-493 limits assumed): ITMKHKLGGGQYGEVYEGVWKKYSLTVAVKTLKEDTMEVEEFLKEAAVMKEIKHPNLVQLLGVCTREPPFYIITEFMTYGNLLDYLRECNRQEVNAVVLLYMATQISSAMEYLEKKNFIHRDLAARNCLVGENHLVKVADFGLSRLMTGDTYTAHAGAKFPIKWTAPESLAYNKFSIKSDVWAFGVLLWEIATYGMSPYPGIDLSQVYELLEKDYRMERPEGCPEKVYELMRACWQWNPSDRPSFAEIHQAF
Procedure: Test for activity against c-Abl protein tyrosine kinase. The test is conducted as a filter binding assay as follows: The His-tagged kinase domain of c-Abl is cloned and expressed in the baculovirus/Sf9 system as described by Bhat et al., J Biol. Chem. 272, 16170-5 (1997). A protein of 37 kD (c-Abl kinase) is purified by a two-step procedure over a Cobalt metal chelate column followed by an anion exchange column with a yield of 1-2 mg/L of Sf9 cells. The purity of the c-Abl kinase is >90% as judged by SDS-PAGE after Coomassie blue staining. The assay contains: c-Abl kinase (50 ng), 20 mM Tris.HCl, pH 7.5, 10 mM MgCl2, 10 μM Na3VO4, 1 mM DTT and 0.06 μCi/assay [γ^33 P]-ATP (5 μM ATP) using 30 μg/mL poly-Ala,Glu,Lys,Tyr-6:2:5:1 (Poly-AEKY, Sigma P1152) in the presence of 1% DMSO, total volume of 30 μL. Reactions are terminated by adding 10 μL of 250 mM EDTA, and 30 μL of the reaction mixture is transferred onto Immobilon-PVDF membrane (Millipore, Bedford, Mass., USA) previously soaked for 5 min with methanol, rinsed with water, then soaked for 5 min with 0.5% H3PO4 and mounted on vacuum manifold with disconnected vacuum source. After spotting all samples, vacuum is connected and each well rinsed with 200 μL 0.5% H3PO4. Membranes are removed and washed on a shaker with 0.5% H3PO4 (4 times) and once with ethanol. Membranes are counted after drying at ambient temperature, mounting in Packard TopCount 96-well frame, and addition of 10 μL/well of Microscint™ (Packard).
(§1) Enzymatic (c-Abl, KDR, Flt3) in vitro inhibition data are presented as % inhibition at 10 μM. The measurements are made as described above in the general description.

KDR = KDR (Homo sapiens, UniProt P35968); assay: Enzymatic KDR in vitro inhibition; format: biochemical
Chain of KDR (P35968 20-1356): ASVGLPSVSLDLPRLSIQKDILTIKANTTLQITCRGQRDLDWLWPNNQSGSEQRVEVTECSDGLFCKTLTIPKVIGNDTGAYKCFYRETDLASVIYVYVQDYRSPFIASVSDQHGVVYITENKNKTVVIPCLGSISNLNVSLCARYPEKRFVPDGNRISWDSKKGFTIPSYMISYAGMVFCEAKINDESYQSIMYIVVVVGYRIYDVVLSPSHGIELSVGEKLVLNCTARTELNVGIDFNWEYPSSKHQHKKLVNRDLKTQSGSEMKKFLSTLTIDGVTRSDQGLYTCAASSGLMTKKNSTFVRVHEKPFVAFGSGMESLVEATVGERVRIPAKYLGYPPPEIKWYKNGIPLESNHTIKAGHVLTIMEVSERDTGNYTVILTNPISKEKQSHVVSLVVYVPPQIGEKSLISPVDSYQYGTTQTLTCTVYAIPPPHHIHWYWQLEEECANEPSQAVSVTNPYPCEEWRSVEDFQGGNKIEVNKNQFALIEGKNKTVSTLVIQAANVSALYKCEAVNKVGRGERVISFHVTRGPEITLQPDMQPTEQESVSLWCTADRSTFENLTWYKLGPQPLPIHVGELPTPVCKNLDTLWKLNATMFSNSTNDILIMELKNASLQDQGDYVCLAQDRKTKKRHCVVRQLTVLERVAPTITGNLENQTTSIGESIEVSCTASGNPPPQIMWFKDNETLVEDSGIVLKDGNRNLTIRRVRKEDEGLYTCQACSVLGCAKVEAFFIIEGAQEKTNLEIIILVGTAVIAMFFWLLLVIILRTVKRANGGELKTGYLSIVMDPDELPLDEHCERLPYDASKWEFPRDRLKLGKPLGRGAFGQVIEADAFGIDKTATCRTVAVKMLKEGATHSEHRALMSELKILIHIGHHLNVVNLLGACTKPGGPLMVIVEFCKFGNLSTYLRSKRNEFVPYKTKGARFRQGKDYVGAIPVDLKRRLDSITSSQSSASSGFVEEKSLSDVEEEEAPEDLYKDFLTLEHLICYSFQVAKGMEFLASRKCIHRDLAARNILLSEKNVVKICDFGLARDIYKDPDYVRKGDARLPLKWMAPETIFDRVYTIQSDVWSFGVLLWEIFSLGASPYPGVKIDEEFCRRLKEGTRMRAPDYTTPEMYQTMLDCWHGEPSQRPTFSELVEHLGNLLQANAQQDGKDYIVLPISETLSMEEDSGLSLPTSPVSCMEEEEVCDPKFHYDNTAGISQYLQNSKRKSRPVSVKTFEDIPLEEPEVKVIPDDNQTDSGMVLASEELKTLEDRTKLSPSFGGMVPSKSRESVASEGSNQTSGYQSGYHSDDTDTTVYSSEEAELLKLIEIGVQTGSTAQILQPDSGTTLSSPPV
Procedure: Test for activity against VEGF-receptor tyrosine kinase. The test is conducted using Flt-1 VEGF-receptor tyrosine kinase. The detailed procedure is as follows: 30 μL kinase solution (10 ng of the kinase domain of Flt-1, Shibuya et al., Oncogene 5, 519-24 [1990]) in 20 mM Tris.HCl pH 7.5, 3 mM manganese dichloride (MnCl2), 3 mM magnesium chloride (MgCl2), 10 μM sodium vanadate, 0.25 mg/mL polyethylenglycol (PEG) 20000, 1 mM dithiothreitol and 3 μg/μL poly(Glu,Tyr) 4:1 (Sigma, Buchs, Switzerland), 8 μM [^33P]-ATP (0.2 μCi), 1% DMSO, and 0 to 100 μM of the compound to be tested are incubated together for 10 minutes at room temperature. The reaction is then terminated by the addition of 10 μL 0.25 M ethylenediaminetetraacetate (EDTA) pH 7. Using a multichannel dispenser (LAB SYSTEMS, USA), an aliquot of 20 μL is applied to a PVDF (=polyvinyl difluoride) Immobilon P membrane (Millipore, Bedford, USA), through a Gibco-BRL microtiter filter manifold and connected to a vacuum. Following complete elimination of the liquid, the membrane is washed 4 times successively in a bath containing 0.5% phosphoric acid (H3PO4) and once with ethanol, incubated for 10 minutes each time while shaking, then mounted in a Hewlett Packard TopCount Manifold and the radioactivity measured after the addition of 10 μL Microscint® (β-scintillation counter liquid). IC50-values are determined by linear regression analysis of the percentages for the inhibition of each compound in at least four concentrations (as a rule 0.01, 0.1, 1.0 and 10 μmol).
as §1

| SMILES | inhibition at 10 µM (c-Abl) [%] | inhibition at 10 µM (KDR) [%] |
| --- | --- | --- |
| Cc1ccc(C(=O)NCc2ccc(S(C)(=O)=O)cc2)cc1Nc1nccc(-c2cccnc2)n1 [Example 24, 4-Methyl-N-[4-(methylsulfonyl)benzyl]-3-[[4-(3-pyridinyl)-2-pyrimidinyl]amino]benzamide] | 80 | 70 |
| Cc1ccc(C(=O)NCc2ccc(N(C)C)cc2)cc1Nc1nccc(-c2cccnc2)n1 [Example 25, N-[[4-(Dimethylamino)phenyl]methyl]-4-methyl-3-[[4-(3-pyridinyl)-2-pyrimidinyl]amino]benzamide] | 44 | 73 |
| Cc1ccc(C(=O)NCC(N)=O)cc1Nc1nccc(-c2cccnc2)n1 [Example 26, N-(2-Amino-2-oxoethyl)-4-methyl-3-[[4-(3-pyridinyl)-2-pyrimidinyl]amino]benzamide] | 55 | 56 |
| COC(=O)CNC(=O)c1ccc(C)c(Nc2nccc(-c3cccnc3)n2)c1 [Example 27, N-[4-Methyl-3-[[4-(3-pyridinyl)-2-pyrimidinyl]amino]benzoyl]glycine methyl ester] | 54 | 51 |
| COC(=O)CCNC(=O)c1ccc(C)c(Nc2nccc(-c3cccnc3)n2)c1 [Example 28, N-[4-Methyl-3-[[4-(3-pyridinyl)-2-pyrimidinyl]amino]benzoyl]beta-alanine methyl ester] | 73 | 61 |
| Cc1ccc(C(=O)NCCCO)cc1Nc1nccc(-c2cccnc2)n1 [Example 30, N-(3-Hydroxypropyl)-4-methyl-3-[[4-(3-pyridinyl)-2-pyrimidinyl]amino]benzamide] | 57 | 37 |
| CCN(CC)C(=O)c1ccc(C)c(Nc2nccc(-c3cccnc3)n2)c1 [Example 31, N,N-Diethyl-4-methyl-3-[[4-(3-pyridinyl)-2-pyrimidinyl]amino]benzamide] | 68 | 83 |
| Cc1ccc(C(=O)N[C@@H](Cc2ccccc2)C(=O)OC(C)(C)C)cc1Nc1nccc(-c2cccnc2)n1 [Example 32, N-[4-Methyl-3-[[4-(3-pyridinyl)-2-pyrimidinyl]amino]benzoyl]-(L)-phenylalanine 1,1-dimethylethyl ester] | 90 | 37 |
| Cc1ccc(C(=O)N[C@H](C)C(=O)OC(C)(C)C)cc1Nc1nccc(-c2cccnc2)n1 [Example 33, N-[4-Methyl-3-[[4-(3-pyridinyl)-2-pyrimidinyl]amino]benzoyl]-(D)-alanine 1,1-dimethylethyl ester] | 97 | 51 |
| Cc1ccc(C(=O)N2CCC(NC(=O)c3ccccc3)CC2)cc1Nc1nccc(-c2cccnc2)n1 [Example 34, N-[1-[4-Methyl-3-[[4-(3-pyridinyl)-2-pyrimidinyl]amino]benzoyl]-4-piperidinyl]benzamide] | 73 | 89 |
| Cc1ccc(C(=O)N2CCOCC2)cc1Nc1nccc(-c2cccnc2)n1 [Example 35, 4-[4-Methyl-3-[[4-(3-pyridinyl)-2-pyrimidinyl]amino]benzoyl]-morpholine] | 27 | 47 |
| COc1ccc(N2CCN(C(=O)c3ccc(C)c(Nc4nccc(-c5cccnc5)n4)c3)CC2)cc1 [Example 36, 1-(4-Methoxyphenyl)-4-[4-methyl-3-[[4-(3-pyridinyl)-2-pyrimidinyl]amino]-benzoyl]piperazine] | 57 | 77 |
| Cc1ccc(C(=O)N2CCN(c3ccncc3)CC2)cc1Nc1nccc(-c2cccnc2)n1 [Example 37, 1-[4-Methyl-3-[[4-(3-pyridinyl)-2-pyrimidinyl]amino]benzoyl]-4-(4-pyridinyl)-piperazine] | 28 | 82 |
| Cc1ccc(C(=O)N2CCN(c3cnccn3)CC2)cc1Nc1nccc(-c2cccnc2)n1 [Example 38, 1-[4-Methyl-3-[[4-(3-pyridinyl)-2-pyrimidinyl]amino]benzoyl]-4-(pyrazinyl)-piperazine] | 74 | 91 |

Results, then the compound that gave them:

| inhibition at 10 µM (c-Abl) [%] | inhibition at 10 µM (KDR) [%] | SMILES |
| --- | --- | --- |
| 64 | 74 | Cc1ccc(C(=O)N2CCN(Cc3ccccc3)CC2)cc1Nc1nccc(-c2cccnc2)n1 [Example 39, 1-[4-Methyl-3-[[4-(3-pyridinyl)-2-pyrimidinyl]amino]benzoyl]-4-(phenylmethyl)-piperazine] |
| 65 | 78 | Cc1ccc(C(=O)N2CCN(C3CCCC3)CC2)cc1Nc1nccc(-c2cccnc2)n1 [Example 40, 1-Cyclopentyl-4-[4-methyl-3-[[4-(3-pyridinyl)-2-pyrimidinyl]amino]benzoyl]piperazine] |
| 13 | 52 | Cc1ccc(C(=O)N2CCN(CC(=O)N3CCOCC3)CC2)cc1Nc1nccc(-c2cccnc2)n1 [Example 41, 4-{{4-[4-Methyl-3-[[4-(3-pyridinyl)-2-pyrimidinyl]amino]benzoyl]-1-piperazinyl}acetyl}morpholine] |
| 32 | 56 | Cc1ccc(C(=O)N2CCN(CC(=O)N3CCCC3)CC2)cc1Nc1nccc(-c2cccnc2)n1 [Example 42, 1-[4-Methyl-3-[[4-(3-pyridinyl)-2-pyrimidinyl]amino]benzoyl]-4-[2-oxo-2-(1-pyrrolidinyl)ethyl]piperazine] |
| 37 | 63 | CCOC(=O)N1CCN(C(=O)c2ccc(C)c(Nc3nccc(-c4cccnc4)n3)c2)CC1 [Example 43, 4-[4-Methyl-3-[[4-(3-pyridinyl)-2-pyrimidinyl]amino]benzoyl]-1-piperazinecarboxylic acid ethyl ester] |
| 75 | 97 | Cc1ccc(C(=O)N2CCc3ccccc3C2)cc1Nc1nccc(-c2cccnc2)n1 [Example 44, 2-[4-Methyl-3-[[4-(3-pyridinyl)-2-pyrimidinyl]amino]benzoyl]-1,2,3,4-tetrahydro-isoquinoline] |
| 34 | 61 | COCCN(CCOC)C(=O)c1ccc(C)c(Nc2nccc(-c3cccnc3)n2)c1 [Example 45, N,N-bis(2-Methoxyethyl)-4-methyl-3-[[4-(3-pyridinyl)-2-pyrimidinyl]amino]benzamide] |
| 1 | 43 | Cc1ccc(C(=O)N2CCC(N3CCCCC3)CC2)cc1Nc1nccc(-c2cccnc2)n1 [Example 46, 1′-[4-Methyl-3-[[4-(3-pyridinyl)-2-pyrimidinyl]amino]benzoyl]-1,4′-bipiperidine] |
| 39 | 74 | CCOC(=O)CN(Cc1ccccc1)C(=O)c1ccc(C)c(Nc2nccc(-c3cccnc3)n2)c1 [Example 47, N-[4-Methyl-3-[[4-(3-pyridinyl)-2-pyrimidinyl]amino]benzoyl]-N-(phenylmethyl)-glycine ethyl ester] |
| 90 | 50 | Cc1ccc(C(=O)Nc2cccc(Cl)c2)cc1Nc1nccc(-c2cccnc2)n1 [Example 48, N-(3-Chlorophenyl)-4-methyl-3-[[4-(3-pyridinyl)-2-pyrimidinyl]amino]benzamide] |
